Test results: patent US11708562B2, “Differentiation of human embryonic stem cells” (Janssen Biotech, Inc., priority 2006, dated 2023)
“And” between values parts separate entries of the source, which are not always exact repeats. Identical values can stand only once.

Key:
[1] = tested on: H9P49 embryonic stem cells; experiment: Pancreatic endoderm under feeder-free conditions: evaluation of retinoic acid analogues (PCR); format: cell-based, human; conditions: 10 μM AM-580
Description: At day 5, cells were collected for evaluation by FACS and real-time PCR. […] The resulting definitive endoderm cells at day 5 were exposed to the following media conditions to induce pancreatic endoderm formation: culturing in DMEM/F12 media supplemented with 2% FBS and 1 μM all-trans retinoic acid (RA) (Catalog # R2625, Sigma, MO), or 0.1-10 μM AM-580 (4-[(5,6,7,8-Tetrahydro-5,5,8,8-tetramethyl-2-naphthalenyl)carboxamido]benzoic acid, Catalog # A8843, Sigma, MO), or 0.1-1 μM TTNPB (4-[(E)-2-(5,6,7,8-Tetrahydro-5,5,8,8-tetramethyl-2-naphthalenyl)-1-propenyl]benzoic acid Arotinoid acid, Catalog # T3757, Sigma, MO) for 3 days. AM-580 and TITNPB are retinoic acid analogs with affinity for retinoic acid receptors. RA treatment was followed by additional three day treatment in DMEM/F12 media supplemented with 2% FBS and 20-50 ng/ml bFGF (Catalog # F0291, Sigma, MO). Cultures were harvested and samples of mRNA were collected for analysis.

[2] = tested on: H7P44 and H9P46 embryonic stem cells; experiment: Definitive endoderm on […]: role of Wnt ligands (FACS CXCR4, real-time PCR); format: cell-based, human; conditions: H7 and H9; low serum+AA+/-Wnt ligands
Description: In some of the cultures 20 ng/ml Wnt-3a (Catalog #1324-WN-002, R&D Systems, MN), 20 ng/ml Wnt-5a (Catalog #654-WN-010, R&D Systems, MN), 25 ng/ml Wnt-7a (Catalog #3008-WN-025, R&D Systems, MN), or 25 ng/ml Wnt-5b (Catalog #3006-WN-025, R&D Systems, MN) was added throughout the five day treatment. FIGS. 24A and 24B depicts phase contrast images of H9P46 definitive endoderm culture in the presence of high concentration of (a) AA or (b) AA+20 ng/ml Wnt-3a. FIGS. 25A, 25B, 25C and 25D depicts the expression of CXCR4 by FACS at day 5 for H7P44, and H9P46 lines cultured on […]™ (1:30 dilution) and exposed to the DE protocol+Wnt-3a (FIGS. 25B and 25D) and -Wnt-3a (FIGS. 25A and C).

[3] = tested on: human embryonic stem cell line H1 at passage 55; experiment: Definitive endoderm on human serum coated plates (real-time PCR); format: cell-based
Description: Cultures of the human embryonic stem cell line H1 at passage 55 were grown and differentiated on human serum (Sigma, # H1388, MO) coated plates. 0.5 ml of human serum was added to each well of 6 well tissue culture treated dish, incubated for 1 hr at room temperature, and aspirated before adding human embryonic stem cells. […] These findings parallel our findings for human embryonic stem cells cultured on […]™ or human fibronectin coated plates.

[4] = tested on: H9P46 embryonic stem cells; experiment: Definitive endoderm on […]: effective dose of Wnt-3a (FACS, PCR, cell number); format: cell-based, human
Description: Control cultures were not treated with Wnt-3a. FIG. 27A depicts the expression of CXCR4 by FACS at day 5 in the absence of Wnt-3a, b) 10 ng/ml Wnt-3a, c) 20 ng/ml Wnt-3a and d) 50 ng/ml Wnt-3a. In the absence of Wnt-3a the expression of CXCR4 was very low. […] Real-time PCR results (FIG. 28A) also confirm this finding.
In a separate study, H9p52 cells were plated on 1:30 low growth factor […]™. For the first 2 days of the DE protocol a range of Wnt3A doses was used: 10 ng/ml, 5 ng/ml and 1 ng/ml. […] The number of cells at the end of the experiment is noted in FIG. 28C.

[5] = tested on: H9 cultures; experiment: Definitive endoderm on varying concentrations of […] with Wnt-3a (real-time PCR); format: cell-based, human; conditions: low serum, 100 ng/ml activin A and 20 ng/ml Wnt-3a
Description: H9 cells were cultured on plates coated with regular […] at a 1:60 to 1:10 dilution. The plates were coated with […] for 1 hr at room temperature.

[6] = tested on: SA002 P38 cells; experiment: Differentiation of SA002 ES line on […] to definitive endoderm; format: cell-based, human; conditions: 20 ng/ml Wnt-3a
From the text: Expression of CXCR4 is depicted in FIGS. 45A, 45B and 45C: a) AA treatment b) AA+Wnt-3a c) AA+GSK-3B inhibitor.

[7] = tested on: H9P53 embryonic stem cells; experiment: Definitive endoderm on […]: combination of Wnt-3a, GSK-3B inhibitor, BMP-4; format: cell-based, human; conditions: Wnt-3A plus GSK inhibitor in the presence of activin A
From the text: Results are expressed as fold increase over untreated cells. […] Results are expressed as fold increase over untreated cells.

[8] = tested on: human embryonic stem cell line H9; experiment: Cytokine array of cell lysates and conditioned media +/- Wnt3a (Table VII); format: cell-based; design: unit not given here; conditions: 100 ng/ml Activin A + 10 ng/ml Wnt3a
Description: The effect that Wnt-3a treatment has on cytokine expression was analyzed using a protein array. Cells of the human embryonic stem cell line H9 were cultured according to the methods described in Example 15. […] Cell lysates were prepared from cells of each treatment group, with a mammalian cell lysis kit (Sigma-Aldrich, MO). Conditioned media from each treatment group was collected and concentrated. Cytokine array analysis was completed using Cytokine Array panels provided by RayBiotech, GA (http://www.raybiotech.com/). Table VII lists cytokine, growth factor, and receptor expression following normalization of the data and background subtraction. For each panel, positive and negative controls are also included.

[9] = tested on: human embryonic stem cell line H9; experiment: Cells from […] differentiated on MEFs: role of Wnt-3a (real-time PCR, FACS); format: cell-based
Description: Cells from the human embryonic stem cell line H9 cultured on […]™ for at least five passages were seeded onto MEF feeders in ES media.
At day 3 and 5, the cultures were analyzed by real time PCR for SOX-17, SOX-7, Alpha-fetal protein (AFP), CXCR4, Brychyury (Bry), gooscecoid (GSC), HNF-3 beta, GATA4, hTERT and Oct4. AFP and SOX-7 are regarded as visceral endoderm markers while GATA4, HNF-3beta and SOX-17 represent definite endoderm markers and GSC, Bry, and CXCR4 represent markers of primitive streak. hTERT and Oct-4 are markers for self renewal and pluripotency respectively. FACS analysis was also performed at day 3 and 5.

[10] = tested on: H9 embryonic stem cells; experiment: Immunofluorescence staining of DE markers +/- Wnt-3a; format: cell-based, human
From the text: Day 5 DE cultures of H9 cells were stained according to Example 10 for SOX-17, HNF-3B, GATA-4, N-cadherin, and E-cadherin. All nuclei were counter stained with DAPI.

[11] = tested on: H9P46-P48 embryonic stem cells; experiment: Definitive endoderm on […]: effect of GSK-3B inhibitor (FACS CXCR4, PCR); format: cell-based, human; conditions: 20 ng/ml of Wnt-3a or 100-1000 nM GSK-3B inhibitor
Description: In order to confirm that the effect of Wnt-3a was through the Wnt pathway, a GSK-3 inhibitor was used to activate the downstream targets of Wnt, such as beta catenin. […] FIG. 29A depicts the expression of CXCR4 by FACS at day 5 in the absence of Wnt-3a or GSK-3B inhibitor, b)+20 ng/ml Wnt-3a, c)+1000 nM GSK-3B inhibitor IX, d)+500 nM GSK-3B inhibitor IX, e)+100 nM GSK-3B inhibitor IX, f)+10 nM GSK-3B inhibitor IX, g)+100 nM GSK-3B inhibitor IX for days 1-2, and h)+10 nM GSK-3B inhibitor IX for days 1-2.

[12] = tested on: H9P44 cells; experiment: Definitive endoderm on MEFs with growth factor combinations: RT-PCR of definitive endoderm markers (Table V); format: cell-based, human; conditions: H9P44 on MEF
Description: H9P44 cells were plated onto 6 well plates previously coated with mitomycin treated mouse embryonic fibroblasts (MEF). Cells were grown until 70 to 80% confluency in ES cell medium consisting of DMEM/F12 (Invitrogen/GIBCO) supplemented with 20% knockout serum replacement, 100 nM MEM nonessential amino acids, 0.5 mM beta-mercaptoethanol, 2 mM L-glutamine (all from Invitrogen/GIBCO) and 8 ng/ml human basic fibroblast growth factor (bFGF) (R&D Systems).
Growth factors were added to increasing concentration of FBS in a stepwise manner as indicated in the following regimen:
All growth factors were purchased from R&D Systems, MN. A detailed description and concentration of growth factors for each treatment group is shown below. • 1. Control—No growth factor added • 2. […] IL-4 (10 ng/ml) • 10. SDF1a (20 ng/ml) • 11. […] BMP2 (100 ng/ml)+BMP-4 (100 ng/ml)+BMP-6 (100 ng/ml)+BMP-7 (100 ng/ml) • 13.
For RT-PCR analysis, cells were analyzed for expression of selected panel of definitive endoderm markers.

Row | Compound | expression of PDX-1 [1] | expression of definitive endoderm markers (real-time PCR) [2] | expression of definitive endoderm markers compared to activin A only [3] | number of CXCR4 positive cells (FACS) ([4]; 10-50 ng/ml of Wnt-3a, day 5) | Wnt3a dose sufficient for optimal cell expansion and definitive endoderm differentiation ([4]; H9p52, for 2 days) | expression of CXCR4 (FACS) ([4]; absence versus 10 and 50 ng/ml Wnt-3a: 10 ng/ml compared with 50 ng/ml) | expression of CXCR4, GATA4, Goosecoid, HNF-3beta, and SOX-17 genes [5] | expression of DE markers [6] | definitive endoderm markers, combination versus each agent by itself [7] | Axl expression ([8]; cell conditioned media) | IL-1beta expression ([8]; cell conditioned media) | IL-1ra expression ([8]; cell conditioned media) | Axl expression ([8]; cell lysate) | IL-1beta expression ([8]; cell lysate) | IL-1ra expression ([8]; cell lysate) | role in differentiation of cells cultured on MEFs to definitive endoderm [9] | nuclei stained positive for SOX-17, HNF-3beta and GATA-4 ([10]; 20 ng/ml Wnt-3a, day 5) | expression of e-cadherin ([10]; addition of Wnt-3a) | number of CXCR4 positive cells (FACS) [11] | definitive endoderm markers on addition to high dose activin A in low serum [12]
1 | CC1(C)CCC(C)(C)c2cc(C(=O)Nc3ccc(C(=O)O)cc3)ccc21 [AM-580, 4-[(5,6,7,8-Tetrahydro-5,5,8,8-tetramethyl-2-naphthalenyl)carboxamido]benzoic acid] | maintaining a high expression | – | – | – | – | – | – | – | – | – | – | – | – | – | – | – | – | – | – | –
2 | Wnt-3a | – | significant upregulation | Robust expression | significantly increased | 10 ng/mL | as effective as | led to the expression | required addition of Wnt-3A for robust expression of DE markers | do not lead to significant upregulation | 610.40 and 748.34 | 316.59 and 278.30 | 354.23 and 581.75 | 88.59 and 139.03 | 352.05 and 312.08 | 302.68 and 198.48 | does not appear to play a significant role | significantly larger number | significant loss of expression | significantly increased | no significant upregulation
